MIC data for 32 compounds are collected here from ChEMBL document CHEMBL1629481, “A regio- and stereoselective 1,3-dipolar cycloaddition for the synthesis of novel spiro-pyrrolothiazolyloxindoles and their antitubercular evaluation” (2010).

Converted amounts (≈) assume the structure as drawn. Some results are limits rather than exact numbers.

This test has as its system Mycobacterium tuberculosis. The test is described as follows: Antimycobacterial activity against Mycobacterium tuberculosis H37Rv by agar dilution method. In kind it is functional.

The compound `O=C1Nc2ccccc2[C@]12N1CSC[C@H]1[C@H](c1cccc(Cl)c1Cl)[C@]21Cc2ccccc2C1=O` registered a minimum inhibitory concentration (MIC) of 12.3 µg/mL (≈ 24.2 µM).
`O=C1Nc2ccccc2[C@]12N1CSC[C@H]1[C@H](c1ccc(Cl)cc1)[C@]21Cc2ccccc2C1=O` had an MIC of 52.9 µg/mL (≈ 112 µM).
With `O=C1Nc2ccccc2[C@]12N1CSC[C@H]1[C@H](c1ccc([N+](=O)[O-])cc1)[C@]21Cc2ccccc2C1=O` the figure was 12.9 µg/mL (≈ 26.7 µM).
The same measure for `COc1ccc([C@H]2[C@@H]3CSCN3[C@@]3(C(=O)Nc4ccccc43)[C@@]23Cc2ccccc2C3=O)cc1`: > 53.4 µg/mL.
`O=C1Nc2ccc([N+](=O)[O-])cc2[C@]12N1CSC[C@H]1[C@H](c1ccc(Br)cc1)[C@]21Cc2ccccc2C1=O` showed a minimal inhibitory concentration (MIC) of 11.1 µg/mL (≈ 19.7 µM).
In the case of `O=C1Nc2ccc([N+](=O)[O-])cc2[C@]12N1CSC[C@H]1[C@H](c1ccc([N+](=O)[O-])cc1)[C@]21Cc2ccccc2C1=O`, the MIC is 5.9 µg/mL (≈ 11.2 µM).
With `O=C1Nc2ccc(Cl)cc2[C@]12N1CSC[C@H]1[C@H](c1ccc(F)cc1)[C@]21Cc2ccccc2C1=O` the figure was 12.7 µg/mL (≈ 25.9 µM).
With `O=C1Nc2ccc([N+](=O)[O-])cc2[C@]12N1CSC[C@H]1[C@H](c1ccc(Cl)cc1)[C@]21Cc2ccccc2C1=O` the figure was 24.1 µg/mL (≈ 46.5 µM); with `O=C1Nc2ccc([N+](=O)[O-])cc2[C@]12N1CSC[C@H]1[C@H](c1ccccc1Cl)[C@]21Cc2ccccc2C1=O`, 12.1 µg/mL (≈ 23.4 µM); with `O=C1Nc2ccccc2[C@]12N1CSC[C@H]1[C@H](c1cccs1)[C@]21Cc2ccccc2C1=O`, 56.2 µg/mL (≈ 126 µM).
With `O=C1Nc2ccccc2[C@]12N1CSC[C@H]1[C@H](c1ccccc1Cl)[C@]21Cc2ccccc2C1=O` the figure was 26.4 µg/mL (≈ 55.8 µM); with `O=C1Nc2ccc(Cl)cc2[C@]12N1CSC[C@H]1[C@H](c1ccccc1Cl)[C@]21Cc2ccccc2C1=O`, 12.3 µg/mL (≈ 24.2 µM).
For the compound `CC[C@@H](CO)NCCN[C@@H](CC)CO` [ETHAMBUTOL], the MIC turned out to be 7.6 µg/mL (≈ 37.2 µM).
Regarding `O=C1Nc2ccc(Cl)cc2[C@]12N1CSC[C@H]1[C@H](c1ccc(Br)cc1)[C@]21Cc2ccccc2C1=O`, the lowest concentration to inhibit growth (MIC) was 11.3 µg/mL (≈ 20.5 µM).
Regarding `O=C1Nc2ccc(Cl)cc2[C@]12N1CSC[C@H]1[C@H](c1ccc([N+](=O)[O-])cc1)[C@]21Cc2ccccc2C1=O`, the minimal inhibitory concentration (MIC) was determined as 12.1 µg/mL (≈ 23.4 µM).
Regarding `CO[C@H]1/C=C/O[C@@]2(C)Oc3c(C)c(O)c4c(O)c(c(/C=N/N5CCN(C)CC5)c(O)c4c3C2=O)NC(=O)/C(C)=C\C=C\[C@H](C)[C@H](O)[C@@H](C)[C@@H](O)[C@@H](C)[C@H](OC(C)=O)[C@@H]1C` [RIFAMPIN], the MIC came to 0.1 µg/mL (≈ 0.122 µM).
The same measure for `Cc1ccccc1[C@H]1[C@@H]2CSCN2[C@@]2(C(=O)Nc3ccc(Cl)cc32)[C@@]12Cc1ccccc1C2=O`: 25.7 µg/mL (≈ 52.8 µM).
For `NNC(=O)c1ccncc1` [ISONIAZID], 0.4 µg/mL (≈ 2.92 µM) was the least that counted as inhibitory (MIC).
The same measure for `Cc1ccccc1[C@H]1[C@@H]2CSCN2[C@@]2(C(=O)Nc3ccccc32)[C@@]12Cc1ccccc1C2=O`: > 55.2 µg/mL.
In the case of `O=C1Nc2ccc([N+](=O)[O-])cc2[C@]12N1CSC[C@H]1[C@H](c1cccc(Cl)c1Cl)[C@]21Cc2ccccc2C1=O`, the MIC stood at 2.8 µg/mL (≈ 5.07 µM).
With `O=C1Nc2ccccc2[C@]12N1CSC[C@H]1[C@H](c1ccc(F)cc1)[C@]21Cc2ccccc2C1=O` the figure was 13.7 µg/mL (≈ 30 µM).
The same measure for `O=C1Nc2ccc(Cl)cc2[C@]12N1CSC[C@H]1[C@H](c1ccc(Cl)cc1)[C@]21Cc2ccccc2C1=O`: 24.6 µg/mL (≈ 48.5 µM); for `Cc1ccc([C@H]2[C@@H]3CSCN3[C@@]3(C(=O)Nc4ccc([N+](=O)[O-])cc43)[C@@]23Cc2ccccc2C3=O)cc1`: 25.1 µg/mL (≈ 50.4 µM); for `O=C1Nc2ccccc2[C@]12N1CSC[C@H]1[C@H](c1ccc(Br)cc1)[C@]21Cc2ccccc2C1=O`: 24.2 µg/mL (≈ 46.8 µM).
With `Cc1ccc([C@H]2[C@@H]3CSCN3[C@@]3(C(=O)Nc4ccccc43)[C@@]23Cc2ccccc2C3=O)cc1`, the minimal inhibitory concentration (MIC) is > 55.2 µg/mL.
For `O=C1Nc2ccc(Cl)cc2[C@]12N1CSC[C@H]1[C@H](c1cccs1)[C@]21Cc2ccccc2C1=O`, the minimum inhibitory concentration (MIC) came out at 52.2 µg/mL (≈ 109 µM).
With `O=C1Nc2ccc(Cl)cc2[C@]12N1CSC[C@H]1[C@H](c1cccc(Cl)c1Cl)[C@]21Cc2ccccc2C1=O` the figure was 5.8 µg/mL (≈ 10.7 µM); with `Cc1ccc([C@H]2[C@@H]3CSCN3[C@@]3(C(=O)Nc4ccc(Cl)cc43)[C@@]23Cc2ccccc2C3=O)cc1`, 51.3 µg/mL (≈ 105 µM); with `COc1ccc([C@H]2[C@@H]3CSCN3[C@@]3(C(=O)Nc4ccc(Cl)cc43)[C@@]23Cc2ccccc2C3=O)cc1`, > 49.7 µg/mL.
With `Cc1ccccc1[C@H]1[C@@H]2CSCN2[C@@]2(C(=O)Nc3ccc([N+](=O)[O-])cc32)[C@@]12Cc1ccccc1C2=O` the figure was 25.1 µg/mL (≈ 50.4 µM); with `O=C1Nc2ccc([N+](=O)[O-])cc2[C@]12N1CSC[C@H]1[C@H](c1ccc(F)cc1)[C@]21Cc2ccccc2C1=O`, 3.1 µg/mL (≈ 6.18 µM).
The same measure for `COc1ccc([C@H]2[C@@H]3CSCN3[C@@]3(C(=O)Nc4ccc([N+](=O)[O-])cc43)[C@@]23Cc2ccccc2C3=O)cc1`: 24.3 µg/mL (≈ 47.3 µM).
